The test system of data set [1] is Rattus norvegicus. Description: Wake promoting activity in EEG/EMG Sprague-Dawley rat model assessed as total time awake at 100 mg/kg, ip measured up to 3 hrs (reference value: 65 +/- 9 mins). Particulars: route intraperitoneal.
Data set [2] has as its target Voltage-gated inwardly rectifying potassium channel KCNH2 (Homo sapiens, UniProt Q12809). Description: Inhibition of human ERG at 10 uM.
The target of a further data set is Cytochrome P450 2C19 (Homo sapiens, UniProt P33261). Put plainly: Inhibition of CYP2C19. The data set is classed as ADME.
The target of data set [3] is T1, Sodium-dependent dopamine transporter (Rattus norvegicus, UniProt P23977). Put plainly: Inhibition of rat DAT.
A further data set has as its target CYP2D6 (Homo sapiens, UniProt P10635). Put plainly: Inhibition of CYP2D6 at 10 uM. In kind it is ADME.
The next data set concerns the target Transporter (Rattus norvegicus, UniProt Q63380). Put plainly: Inhibition of rat NET-mediated norepinephrine reuptake.
The next data set deals with CYP3A4 (Homo sapiens, UniProt P08684). Put plainly: Inhibition of CYP3A4 at 10 uM. The data set is classed as ADME.
Data set [4] can be described thus: Solubility of the compound in water at pH 7.4. The data set is classed as physicochemical.
The target in data set [5] is Sodium-dependent serotonin transporter (Rattus norvegicus, UniProt P31652). Description: Inhibition of rat SERT-mediated serotonin reuptake.
Data set [6] deals with Rattus norvegicus. Put plainly: Wake promoting activity in po dosed EEG/EMG Sprague-Dawley rat model assessed as slow wave sleep and rapid eye movement sleep. The data set is classed as functional, organism-based.
For another data set, the system named is Salmonella typhimurium. Put plainly: Mutagenic activity in Salmonella Typhimurium by Mini-Ames test. In kind it is toxicity, organism-based. Particulars: salmonella enterica subsp. enterica serovar typhimurium.
The target of data set [7] is T1, Sodium-dependent dopamine transporter. Description: Inhibition of rat DAT-mediated dopamine reuptake.
Data set [8] is described as follows: Metabolic stability in human liver S9 fraction assessed as compound remaining after 2 hrs. The data set is classed as ADME, subcellular. Particulars: read-out: Stability.
A further data set deals with Plasma. Description: Plasma concentration in human. The data set is classed as ADME, cell-free.

pIC50: −log10 of the molar value. Active and inactive are the calls of the source. The rule behind the calls is not given here.

Chain of CYP2D6 (P10635 whole entry): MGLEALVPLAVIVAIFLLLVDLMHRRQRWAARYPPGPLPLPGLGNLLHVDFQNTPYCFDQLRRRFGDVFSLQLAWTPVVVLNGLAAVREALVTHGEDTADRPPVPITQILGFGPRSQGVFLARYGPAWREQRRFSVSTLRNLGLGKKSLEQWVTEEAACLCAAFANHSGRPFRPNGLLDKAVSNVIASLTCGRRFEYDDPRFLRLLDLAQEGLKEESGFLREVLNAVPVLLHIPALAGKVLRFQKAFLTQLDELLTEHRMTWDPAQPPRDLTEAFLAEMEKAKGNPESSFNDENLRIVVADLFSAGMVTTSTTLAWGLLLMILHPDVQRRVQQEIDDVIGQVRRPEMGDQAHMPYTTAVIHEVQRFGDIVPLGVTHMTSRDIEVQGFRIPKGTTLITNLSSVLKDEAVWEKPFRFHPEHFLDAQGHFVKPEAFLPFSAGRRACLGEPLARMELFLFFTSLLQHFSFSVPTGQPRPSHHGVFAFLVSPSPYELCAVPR
Chain of Cytochrome P450 2C19 (P33261 whole entry): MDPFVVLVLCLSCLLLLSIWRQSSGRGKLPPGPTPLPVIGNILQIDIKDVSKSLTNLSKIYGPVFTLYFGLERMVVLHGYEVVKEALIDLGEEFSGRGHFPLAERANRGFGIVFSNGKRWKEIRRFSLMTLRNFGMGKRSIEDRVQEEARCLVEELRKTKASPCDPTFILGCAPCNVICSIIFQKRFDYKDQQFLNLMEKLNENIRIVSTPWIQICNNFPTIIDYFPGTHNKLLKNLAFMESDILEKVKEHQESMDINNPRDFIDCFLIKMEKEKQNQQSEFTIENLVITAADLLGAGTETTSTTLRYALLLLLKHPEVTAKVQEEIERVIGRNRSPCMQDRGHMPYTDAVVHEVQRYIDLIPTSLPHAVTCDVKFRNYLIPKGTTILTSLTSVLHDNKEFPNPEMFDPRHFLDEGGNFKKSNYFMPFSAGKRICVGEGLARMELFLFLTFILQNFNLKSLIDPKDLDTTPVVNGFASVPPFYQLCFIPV
T1 sequence (P23977 whole entry): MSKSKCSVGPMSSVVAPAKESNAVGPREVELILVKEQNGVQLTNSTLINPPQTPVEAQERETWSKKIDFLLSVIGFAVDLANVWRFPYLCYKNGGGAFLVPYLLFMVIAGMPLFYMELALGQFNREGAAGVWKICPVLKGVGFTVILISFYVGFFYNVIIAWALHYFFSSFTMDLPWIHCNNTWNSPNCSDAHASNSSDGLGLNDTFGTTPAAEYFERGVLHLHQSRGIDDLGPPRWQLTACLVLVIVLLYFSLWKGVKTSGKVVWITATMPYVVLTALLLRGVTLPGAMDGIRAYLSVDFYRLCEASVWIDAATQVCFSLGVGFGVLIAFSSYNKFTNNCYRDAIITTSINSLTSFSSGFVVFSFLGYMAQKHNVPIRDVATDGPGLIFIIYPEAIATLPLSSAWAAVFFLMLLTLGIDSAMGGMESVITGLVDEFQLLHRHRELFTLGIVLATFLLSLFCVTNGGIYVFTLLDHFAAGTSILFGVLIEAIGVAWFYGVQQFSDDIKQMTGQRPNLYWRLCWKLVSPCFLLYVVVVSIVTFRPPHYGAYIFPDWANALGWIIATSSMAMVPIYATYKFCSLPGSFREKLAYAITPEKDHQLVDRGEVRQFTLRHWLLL
Chain of CYP3A4 (P08684 whole entry): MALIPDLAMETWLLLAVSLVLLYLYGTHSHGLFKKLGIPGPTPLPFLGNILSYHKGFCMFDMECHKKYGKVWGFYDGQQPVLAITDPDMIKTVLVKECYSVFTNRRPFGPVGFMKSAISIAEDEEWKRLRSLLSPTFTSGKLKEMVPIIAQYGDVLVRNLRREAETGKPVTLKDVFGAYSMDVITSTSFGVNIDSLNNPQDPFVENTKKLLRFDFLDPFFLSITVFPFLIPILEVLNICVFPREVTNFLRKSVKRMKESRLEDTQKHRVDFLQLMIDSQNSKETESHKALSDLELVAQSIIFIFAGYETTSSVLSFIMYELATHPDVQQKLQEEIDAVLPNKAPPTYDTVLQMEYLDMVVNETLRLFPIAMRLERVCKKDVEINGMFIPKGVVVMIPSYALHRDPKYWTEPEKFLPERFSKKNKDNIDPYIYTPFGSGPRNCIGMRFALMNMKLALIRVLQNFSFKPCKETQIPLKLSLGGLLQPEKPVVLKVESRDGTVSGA
Chain of Sodium-dependent serotonin transporter (P31652 whole entry): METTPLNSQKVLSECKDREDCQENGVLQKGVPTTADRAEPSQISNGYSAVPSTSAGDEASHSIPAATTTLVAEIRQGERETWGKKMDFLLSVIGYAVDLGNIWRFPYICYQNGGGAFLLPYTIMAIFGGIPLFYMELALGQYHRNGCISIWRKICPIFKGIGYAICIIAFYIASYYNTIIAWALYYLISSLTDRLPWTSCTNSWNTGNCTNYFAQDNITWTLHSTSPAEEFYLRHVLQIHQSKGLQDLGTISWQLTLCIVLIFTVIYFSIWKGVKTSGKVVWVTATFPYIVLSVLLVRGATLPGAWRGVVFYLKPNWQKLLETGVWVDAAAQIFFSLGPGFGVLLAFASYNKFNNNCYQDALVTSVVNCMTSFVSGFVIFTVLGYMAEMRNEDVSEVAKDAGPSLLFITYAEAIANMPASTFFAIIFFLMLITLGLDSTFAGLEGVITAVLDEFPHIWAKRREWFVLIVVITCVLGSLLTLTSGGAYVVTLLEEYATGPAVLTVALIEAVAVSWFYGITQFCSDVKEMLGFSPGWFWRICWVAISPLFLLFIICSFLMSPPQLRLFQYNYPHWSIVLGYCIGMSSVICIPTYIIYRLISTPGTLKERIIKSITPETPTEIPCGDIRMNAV
Chain of Transporter (Q63380 whole entry): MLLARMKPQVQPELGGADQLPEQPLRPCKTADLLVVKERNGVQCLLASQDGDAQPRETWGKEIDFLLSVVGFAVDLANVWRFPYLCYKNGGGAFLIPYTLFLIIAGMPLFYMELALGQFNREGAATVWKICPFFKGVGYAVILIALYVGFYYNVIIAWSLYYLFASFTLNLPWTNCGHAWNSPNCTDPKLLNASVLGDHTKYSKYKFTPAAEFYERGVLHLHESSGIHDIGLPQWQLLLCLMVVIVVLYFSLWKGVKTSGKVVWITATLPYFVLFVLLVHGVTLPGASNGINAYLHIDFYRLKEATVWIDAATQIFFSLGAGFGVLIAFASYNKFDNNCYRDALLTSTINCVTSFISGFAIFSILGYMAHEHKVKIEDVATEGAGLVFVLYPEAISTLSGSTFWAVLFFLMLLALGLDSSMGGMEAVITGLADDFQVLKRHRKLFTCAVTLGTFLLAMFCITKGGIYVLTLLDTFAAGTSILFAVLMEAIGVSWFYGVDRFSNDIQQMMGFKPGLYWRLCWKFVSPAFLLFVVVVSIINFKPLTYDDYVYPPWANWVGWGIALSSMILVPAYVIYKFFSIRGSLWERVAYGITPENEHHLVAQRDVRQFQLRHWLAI
Chain of Voltage-gated inwardly rectifying potassium channel KCNH2 (Q12809 whole entry): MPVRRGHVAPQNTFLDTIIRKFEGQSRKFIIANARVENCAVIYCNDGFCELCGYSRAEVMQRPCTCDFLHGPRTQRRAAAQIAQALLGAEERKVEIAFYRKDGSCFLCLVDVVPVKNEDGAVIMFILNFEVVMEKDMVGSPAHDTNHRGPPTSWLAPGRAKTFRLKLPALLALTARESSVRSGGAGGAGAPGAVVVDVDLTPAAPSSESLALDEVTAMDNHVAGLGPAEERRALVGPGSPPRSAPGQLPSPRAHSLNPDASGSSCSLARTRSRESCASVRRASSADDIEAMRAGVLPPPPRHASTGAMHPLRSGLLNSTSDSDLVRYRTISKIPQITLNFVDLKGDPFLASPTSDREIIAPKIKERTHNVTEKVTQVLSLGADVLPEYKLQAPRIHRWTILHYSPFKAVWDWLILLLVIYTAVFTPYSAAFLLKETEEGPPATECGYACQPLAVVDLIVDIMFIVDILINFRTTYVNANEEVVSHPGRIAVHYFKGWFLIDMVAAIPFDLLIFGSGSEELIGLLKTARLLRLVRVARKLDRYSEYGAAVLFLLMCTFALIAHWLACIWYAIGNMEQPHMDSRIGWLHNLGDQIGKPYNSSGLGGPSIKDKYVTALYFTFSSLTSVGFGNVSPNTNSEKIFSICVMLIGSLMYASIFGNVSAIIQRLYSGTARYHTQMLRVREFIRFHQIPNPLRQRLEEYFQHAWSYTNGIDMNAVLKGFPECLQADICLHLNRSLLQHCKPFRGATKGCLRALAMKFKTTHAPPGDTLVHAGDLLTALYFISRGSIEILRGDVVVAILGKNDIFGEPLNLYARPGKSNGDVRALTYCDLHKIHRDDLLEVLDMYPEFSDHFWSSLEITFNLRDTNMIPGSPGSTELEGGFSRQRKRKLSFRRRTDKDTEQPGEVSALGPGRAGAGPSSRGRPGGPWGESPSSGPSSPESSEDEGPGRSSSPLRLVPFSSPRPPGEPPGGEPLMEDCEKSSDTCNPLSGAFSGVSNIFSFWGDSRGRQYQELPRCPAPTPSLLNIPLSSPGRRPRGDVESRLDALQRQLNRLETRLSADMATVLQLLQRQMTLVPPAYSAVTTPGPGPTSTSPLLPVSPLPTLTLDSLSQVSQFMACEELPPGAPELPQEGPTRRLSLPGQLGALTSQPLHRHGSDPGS

Consider `NC(=O)C[S+]([O-])Cc1ccccc1-c1ccccc1` (stereo not drawn), for which the Time in the data set with Rattus norvegicus [1] was 119 min.
Still for that read-out and setting: then `NC(=O)C[S+]([O-])Cc1ccccc1-c1ccccc1F` (stereo not drawn), with 64 min; and `COc1ccccc1-c1ccccc1C[S+]([O-])CC(N)=O` (stereo not drawn), with 86 min; and `NC(=O)C[S+]([O-])Cc1ccccc1-c1ccccc1Cl` (stereo not drawn), with 49 min.
Still for that read-out and setting: then `N#Cc1cccc(-c2ccccc2C[S+]([O-])CC(N)=O)c1` (stereo not drawn), with 99 min; and `NC(=O)C[S+]([O-])Cc1ccccc1-c1cccc(C(N)=O)c1` (stereo not drawn), with 62 min; and `NC(=O)C[S+]([O-])Cc1ccccc1-c1cccc(Cl)c1` (stereo not drawn), with 106 min.
With `NC(=O)C[S+]([O-])Cc1ccccc1-c1ccc(F)cc1` (stereo not drawn), the Time with Rattus norvegicus [1] is on record as 147 min.
The same measure, in the same setting: next, `NC(=O)C[S+]([O-])Cc1ccccc1-c1ccc(Br)cc1` (stereo not drawn): 174 min; `Cc1ccc(-c2ccccc2C[S+]([O-])CC(N)=O)cc1` (stereo not drawn): 146 min.
On the same count and under the same terms, next, `NC(=O)C[S+]([O-])Cc1ccccc1-c1ccc(OC(F)(F)F)cc1` (stereo not drawn): 108 min.
Still for that read-out and setting: then `CC(=O)c1ccc(-c2ccccc2C[S+]([O-])CC(N)=O)cc1` (stereo not drawn), with 77 min.
Consider `N#Cc1ccc(-c2ccccc2C[S+]([O-])CC(N)=O)cc1` (stereo not drawn), for which the Time with Rattus norvegicus [1] stood at 65 min.
As for `Cc1ccccc1-c1cccc(C[S+]([O-])CC(N)=O)c1` (stereo not drawn), the Time in the data set on Rattus norvegicus [1] is given as 117 min.
Still for that read-out and setting: then `NC(=O)C[S+]([O-])Cc1cccc(-c2ccc(Cl)cc2)c1` (stereo not drawn), with 96 min.
Still for that read-out and setting: next, `NC(=O)C[S+]([O-])Cc1ccc(-c2ccccc2)cc1` (stereo not drawn): 100 min; `NC(=O)C[S+]([O-])Cc1ccc(-c2ccc(Cl)cc2)cc1` (stereo not drawn): 92 min.
With `NC(=O)C[S+]([O-])Cc1ccccc1-c1ccc(Cl)cc1` (racemic), the “inhibition (INH)” value in data set [2] is reported as “Not Active”. For the same compound, the negative-log IC50 (pIC50) – broadly, −log10 of the IC50, conventionally taken in molar units – against Cytochrome P450 2C19 was 4.72; in data set [3], 6.22; against Transporter, 5.00; in [5] it was less than 3.52; in data set [7], 6.08. The inhibition at 10 µM against CYP2D6 and against CYP3A4 was less than 10% in each case. Further, in [4], the solubility (commonly how much of the substance goes into solution per volume) was more than 100 µg/mL. The Time in the data set with Rattus norvegicus [1] is 176 min. In addition, the outcome in the data set with Rattus norvegicus [6] was Active. For the same compound, the Activity result in the data set with Salmonella typhimurium is reported as “Non-toxic”. In addition, the remaining at 2 h in [8] was 94%.
On to `NC(=O)C[S+]([O-])C(c1ccccc1)c1ccccc1` (stereo not drawn) [MODAFINIL], for which the pIC50 against Cytochrome P450 2C19 was 4.96. Besides, the inhibition at 10 µM against CYP2D6 and on CYP3A4 was less than 10% in each case. This compound yielded a concentration in the data set with Plasma of more than 30 µM. For the same compound, the solubility in [4] is more than 100 µg/mL. Besides, the Time with Rattus norvegicus [1] was 117 min. Moreover, the Activity result in the data set on Salmonella typhimurium is reported as “Non-toxic”. In addition, the remaining at 2 h in data set [8] amounted to 77%.

For the origin of these results see ChEMBL document CHEMBL1955715 (Bioorg Med Chem Lett, 2012).
